According to PubChem BioAssay AID602260 (Sanford-Burnham Center for Chemical Genomics, 2012):
Calls of active or inactive are those of the source.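 Rule for the calls: active = mean IC50 at or below 20 µM; inactive = the rest.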

Molecular target: Polyadenylate-binding protein 1 (Homo sapiens) (UniProt P11940)
Experiment: MLLE binding blockers, Cy5 peptide tracer – biochemical, fluorescence polarization, Cy5-PAM2 peptide, secondary, miRNA deadenylation inhibitor project, dose response (AID 602260)
Conditions: GST-Mlle / Cy5-PAM2 peptide fluorescence polarization

Sequence of Polyadenylate-binding protein 1 (Homo sapiens) (P11940 whole entry, looked up): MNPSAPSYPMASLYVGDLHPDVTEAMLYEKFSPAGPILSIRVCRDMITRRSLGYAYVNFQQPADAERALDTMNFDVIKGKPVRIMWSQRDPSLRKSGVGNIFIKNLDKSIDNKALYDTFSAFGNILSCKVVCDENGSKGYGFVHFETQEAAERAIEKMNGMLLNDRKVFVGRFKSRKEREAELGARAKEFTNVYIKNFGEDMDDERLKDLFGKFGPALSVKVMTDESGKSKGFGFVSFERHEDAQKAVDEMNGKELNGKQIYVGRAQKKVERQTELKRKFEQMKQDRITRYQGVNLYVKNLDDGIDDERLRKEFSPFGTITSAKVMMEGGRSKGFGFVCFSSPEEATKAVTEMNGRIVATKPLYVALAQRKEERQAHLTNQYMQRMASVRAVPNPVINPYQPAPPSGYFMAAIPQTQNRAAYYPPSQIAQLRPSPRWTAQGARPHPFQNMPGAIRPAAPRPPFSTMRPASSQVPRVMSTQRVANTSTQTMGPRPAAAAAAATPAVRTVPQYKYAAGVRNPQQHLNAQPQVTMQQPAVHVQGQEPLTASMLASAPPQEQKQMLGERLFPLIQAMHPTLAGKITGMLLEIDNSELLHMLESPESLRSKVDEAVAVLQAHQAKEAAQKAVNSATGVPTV

IC50, inactive:
COc1ccc(NC(=O)Nc2ccc([N+](=O)[O-])cc2)cn1, C[c-]1[c-](C)[c-](C)[c-](C)[c-]1C.[Fe].c1cc2nccc(N3CCCC3)[c-]2c1 (stereo not drawn) > 66 µM, CCOC(=O)c1c(/N=C/c2cccc([N+](=O)[O-])c2O)sc(C)c1C
